What all share (format): cell-based
Holding throughout (details): Table A; BaF3 cells, 3 days

In one assay the target is T1, EGFR V3 (Homo sapiens, UniProt P00533, DELINS30-297G).
T1 construct: expressed in transfected cells; host or cells: BaF3 (murine pro-B) cells, retroviral transduction with pMXs-IRES-Blasticidin
Kind of assay: BaF3 cell proliferation assay (CellTiterGlo), EGFR V3. Here is the method:
(§1) Retroviral Production: EGFR mutants were subcloned into pMXs-IRES-Blasticidin (RTV-016, Cell Biolabs, San Diego, CA). Retroviral expression vector retrovirus was produced by transient transfection of HEK 293T cells with the retroviral EGFR mutant expression vector pMXs-IRES-Blasticidin (RTV-016, Cell Biolabs), pCMV-Gag-Pol vector and pCMV-VSV-G-Envelope vector. Briefly, HEK 293T/17 cells were plated in 100 mm collagen coated plate (354450, Corning Life Sciences, Tewksbury, MA) (4×10^5 per plate) and incubated overnight. The next day, retroviral plasmids (3 ng of EGFR mutant, 1.0 ng of pCMV-Gag-Pol and 0.5 ng pCMV-VSV-G) were mixed in 500 n1 of Optimem (31985, Life Technologies). The mixture was incubated at room temperature for 5 min and then added to Optimem containing transfection reagent Lipofectamine (11668, Invitrogen) and incubated for 20 minutes. Mixture was then added dropwise to HEK 293T cells. The next day the medium was replaced with fresh culture medium and retrovirus was harvested @ 24 and 48 hrs.
(§2) Generation of EGFR mutant stable cell lines: BaF3 cells (1.5E5 cells) were infected with 1 ml of viral supernatant supplemented with 8 ng/ml polybrene by centrifuging for 30 min at 1000 rpm. Cells were placed in a 37° C. incubator overnight. Cells were then spun for 5 minutes to pellet the cells. Supernatant was removed and cells re-infected a fresh 1 ml of viral supernatant supplemented with 8 ng/ml polybrene by centrifuging for 30 min at 1000 rpm. Cells were placed in 37° C. incubator overnight. Cells were then maintained in RPMI containing 10% Heat Inactivated FBS, 2% L-glutamine containing 10 ng/ml IL-3. After 48 hours cells were selected for retroviral infection in 10 […] for one week. Blasticidin resistant populations were washed twice in phosphate buffered saline before plating in media lacking IL-3 to select for IL-3 independent growth.
(§3) Assay for cell proliferation: BaF3 cell lines were resuspended at 1.3E5 c/ml in RPMI containing 10% Heat Inactivated FBS, 2% L-glutamine and 1% Pen/Strep and dispensed in triplicate (17.5E4 c/well) into 96 well plates. To determine the effect of drug on cell proliferation, cells incubated for 3 days in the presence of vehicle control or test drug at varying concentrations. Inhibition of cell growth was determined by luminescent quantification of intracellular ATP content using CellTiterGlo (Promega), according to the protocol provided by the manufacturer. Comparison of cell number on day 0 versus 72 hours post drug treatment was used to plot dose-response curves. The number of viable cells was determined and normalized to vehicle-treated controls. Inhibition of proliferation, relative to vehicle-treated controls was expressed as a fraction of 1 and graphed using PRISM® software (Graphpad Software, San Diego, CA). EC50 values were determined with the same application.
(In ATP-based viability assays light output follows the ATP content of the culture.)

In another assay the target is T2, HER2 S310F (Homo sapiens, UniProt P04626, S310F).
T2 construct: expressed in transfected cells; host or cells: BaF3 (murine pro-B) cells
Kind of assay: BaF3 cell proliferation assay (CellTiterGlo), HER2 S310F.

The target in another assay is T3, HER2 YVMA (Homo sapiens, UniProt P04626, INS775YVMA).
T3 construct: expressed in transfected cells; host or cells: BaF3 (murine pro-B) cells
Briefly: BaF3 cell proliferation assay (CellTiterGlo), HER2 YVMA.

For another assay, the target named is T4, EGFR wt (Homo sapiens, UniProt P00533).
T4 construct: expressed in transfected cells; host or cells: BaF3 (murine pro-B) cells, retroviral transduction with pMXs-IRES-Blasticidin
Kind of assay: BaF3 cell proliferation assay (CellTiterGlo), EGFR wt. On the procedure:
as §1, §2, §3

A word on the IC50: it is the concentration that gives 50% inhibition. Read a low IC50 as inhibition by little substance.

Where only a bound is given, the exact number is not on record here.

T1 sequence (P00533 with tags, fused parts or gaps DELINS30-297G): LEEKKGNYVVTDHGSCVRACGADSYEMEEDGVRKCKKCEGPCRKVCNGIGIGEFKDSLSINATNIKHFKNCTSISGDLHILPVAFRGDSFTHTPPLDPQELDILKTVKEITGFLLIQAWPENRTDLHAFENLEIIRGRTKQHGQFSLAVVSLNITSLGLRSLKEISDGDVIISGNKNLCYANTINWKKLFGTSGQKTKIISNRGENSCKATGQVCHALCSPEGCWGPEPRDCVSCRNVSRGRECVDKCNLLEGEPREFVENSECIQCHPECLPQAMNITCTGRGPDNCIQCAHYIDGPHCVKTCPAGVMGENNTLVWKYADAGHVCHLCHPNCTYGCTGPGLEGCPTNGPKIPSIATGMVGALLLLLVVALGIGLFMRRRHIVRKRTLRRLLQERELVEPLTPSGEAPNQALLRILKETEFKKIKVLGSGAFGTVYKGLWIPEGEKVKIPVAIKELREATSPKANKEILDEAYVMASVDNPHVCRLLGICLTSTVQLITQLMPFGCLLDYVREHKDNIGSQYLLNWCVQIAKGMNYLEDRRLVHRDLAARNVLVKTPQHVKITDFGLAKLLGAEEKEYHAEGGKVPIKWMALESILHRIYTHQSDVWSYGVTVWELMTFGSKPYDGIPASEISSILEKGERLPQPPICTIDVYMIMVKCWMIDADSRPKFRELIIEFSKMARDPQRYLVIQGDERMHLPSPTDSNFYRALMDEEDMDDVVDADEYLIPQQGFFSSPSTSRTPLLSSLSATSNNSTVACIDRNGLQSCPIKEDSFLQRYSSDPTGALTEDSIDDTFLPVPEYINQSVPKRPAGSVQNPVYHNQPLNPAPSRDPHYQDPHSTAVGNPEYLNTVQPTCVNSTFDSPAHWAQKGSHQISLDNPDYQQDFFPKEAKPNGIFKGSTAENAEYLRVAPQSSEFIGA
T3 sequence (P04626 with tags, fused parts or gaps INS775YVMA): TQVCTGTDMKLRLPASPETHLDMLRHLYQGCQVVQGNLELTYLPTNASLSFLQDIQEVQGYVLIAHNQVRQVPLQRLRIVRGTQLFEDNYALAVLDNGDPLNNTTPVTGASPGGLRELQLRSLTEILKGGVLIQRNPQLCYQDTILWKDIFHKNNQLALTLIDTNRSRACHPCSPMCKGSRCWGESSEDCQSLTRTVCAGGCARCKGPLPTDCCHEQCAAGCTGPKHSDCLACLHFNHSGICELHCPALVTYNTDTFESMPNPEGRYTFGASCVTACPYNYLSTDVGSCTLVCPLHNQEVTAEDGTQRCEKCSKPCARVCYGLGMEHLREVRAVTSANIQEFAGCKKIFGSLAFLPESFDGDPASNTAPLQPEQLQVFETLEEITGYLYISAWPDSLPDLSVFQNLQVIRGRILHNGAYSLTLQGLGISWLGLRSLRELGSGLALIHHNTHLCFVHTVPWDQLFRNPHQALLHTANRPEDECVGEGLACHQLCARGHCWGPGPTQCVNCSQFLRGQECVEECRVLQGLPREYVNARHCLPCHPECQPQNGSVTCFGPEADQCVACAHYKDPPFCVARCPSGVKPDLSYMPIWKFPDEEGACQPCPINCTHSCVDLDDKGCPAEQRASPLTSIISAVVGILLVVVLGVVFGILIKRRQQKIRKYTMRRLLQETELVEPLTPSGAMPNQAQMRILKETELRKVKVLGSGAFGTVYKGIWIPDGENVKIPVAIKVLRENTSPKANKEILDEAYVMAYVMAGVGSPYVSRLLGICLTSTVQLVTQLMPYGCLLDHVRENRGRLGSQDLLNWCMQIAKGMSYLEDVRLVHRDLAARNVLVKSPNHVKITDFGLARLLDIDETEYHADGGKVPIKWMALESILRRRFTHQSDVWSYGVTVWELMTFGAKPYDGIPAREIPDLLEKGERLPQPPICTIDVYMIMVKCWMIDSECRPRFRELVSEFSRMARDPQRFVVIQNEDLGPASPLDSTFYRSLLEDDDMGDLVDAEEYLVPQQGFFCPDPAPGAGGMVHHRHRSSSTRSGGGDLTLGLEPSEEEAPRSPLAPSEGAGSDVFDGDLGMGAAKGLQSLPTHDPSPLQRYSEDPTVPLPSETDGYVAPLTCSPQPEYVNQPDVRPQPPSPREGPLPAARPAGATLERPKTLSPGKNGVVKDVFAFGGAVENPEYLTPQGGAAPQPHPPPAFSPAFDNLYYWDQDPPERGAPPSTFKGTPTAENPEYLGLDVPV
T4 sequence (P00533 25-1210): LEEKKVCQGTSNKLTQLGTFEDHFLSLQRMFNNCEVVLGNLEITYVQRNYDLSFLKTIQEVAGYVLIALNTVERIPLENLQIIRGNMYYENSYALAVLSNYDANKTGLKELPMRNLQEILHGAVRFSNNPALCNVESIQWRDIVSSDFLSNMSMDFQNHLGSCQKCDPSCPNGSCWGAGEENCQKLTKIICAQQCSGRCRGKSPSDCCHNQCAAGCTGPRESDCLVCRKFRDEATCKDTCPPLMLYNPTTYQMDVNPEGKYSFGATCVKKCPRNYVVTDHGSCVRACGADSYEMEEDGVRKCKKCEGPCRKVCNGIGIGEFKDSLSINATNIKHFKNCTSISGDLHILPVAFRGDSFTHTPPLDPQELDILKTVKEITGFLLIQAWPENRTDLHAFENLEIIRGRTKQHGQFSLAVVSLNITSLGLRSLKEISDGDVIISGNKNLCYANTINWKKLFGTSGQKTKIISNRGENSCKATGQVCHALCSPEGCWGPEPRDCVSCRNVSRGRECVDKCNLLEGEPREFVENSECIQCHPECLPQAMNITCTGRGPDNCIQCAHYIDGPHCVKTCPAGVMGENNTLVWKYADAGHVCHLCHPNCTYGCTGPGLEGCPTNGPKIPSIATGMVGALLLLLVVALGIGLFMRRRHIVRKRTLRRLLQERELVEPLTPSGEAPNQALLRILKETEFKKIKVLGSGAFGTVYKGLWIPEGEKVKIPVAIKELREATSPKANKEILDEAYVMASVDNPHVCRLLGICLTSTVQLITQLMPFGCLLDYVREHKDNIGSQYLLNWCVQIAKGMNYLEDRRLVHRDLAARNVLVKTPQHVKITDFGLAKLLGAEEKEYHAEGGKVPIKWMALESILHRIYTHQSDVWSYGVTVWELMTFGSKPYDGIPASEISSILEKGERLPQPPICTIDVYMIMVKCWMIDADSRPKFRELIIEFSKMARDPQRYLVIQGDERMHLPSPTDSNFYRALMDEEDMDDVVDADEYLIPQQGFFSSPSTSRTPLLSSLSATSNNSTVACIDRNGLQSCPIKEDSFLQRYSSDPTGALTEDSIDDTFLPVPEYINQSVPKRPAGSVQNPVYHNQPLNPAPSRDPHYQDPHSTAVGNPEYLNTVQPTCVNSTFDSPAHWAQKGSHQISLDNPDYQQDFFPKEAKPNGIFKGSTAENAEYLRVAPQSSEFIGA
T2 sequence (P04626 23-1255 S310F): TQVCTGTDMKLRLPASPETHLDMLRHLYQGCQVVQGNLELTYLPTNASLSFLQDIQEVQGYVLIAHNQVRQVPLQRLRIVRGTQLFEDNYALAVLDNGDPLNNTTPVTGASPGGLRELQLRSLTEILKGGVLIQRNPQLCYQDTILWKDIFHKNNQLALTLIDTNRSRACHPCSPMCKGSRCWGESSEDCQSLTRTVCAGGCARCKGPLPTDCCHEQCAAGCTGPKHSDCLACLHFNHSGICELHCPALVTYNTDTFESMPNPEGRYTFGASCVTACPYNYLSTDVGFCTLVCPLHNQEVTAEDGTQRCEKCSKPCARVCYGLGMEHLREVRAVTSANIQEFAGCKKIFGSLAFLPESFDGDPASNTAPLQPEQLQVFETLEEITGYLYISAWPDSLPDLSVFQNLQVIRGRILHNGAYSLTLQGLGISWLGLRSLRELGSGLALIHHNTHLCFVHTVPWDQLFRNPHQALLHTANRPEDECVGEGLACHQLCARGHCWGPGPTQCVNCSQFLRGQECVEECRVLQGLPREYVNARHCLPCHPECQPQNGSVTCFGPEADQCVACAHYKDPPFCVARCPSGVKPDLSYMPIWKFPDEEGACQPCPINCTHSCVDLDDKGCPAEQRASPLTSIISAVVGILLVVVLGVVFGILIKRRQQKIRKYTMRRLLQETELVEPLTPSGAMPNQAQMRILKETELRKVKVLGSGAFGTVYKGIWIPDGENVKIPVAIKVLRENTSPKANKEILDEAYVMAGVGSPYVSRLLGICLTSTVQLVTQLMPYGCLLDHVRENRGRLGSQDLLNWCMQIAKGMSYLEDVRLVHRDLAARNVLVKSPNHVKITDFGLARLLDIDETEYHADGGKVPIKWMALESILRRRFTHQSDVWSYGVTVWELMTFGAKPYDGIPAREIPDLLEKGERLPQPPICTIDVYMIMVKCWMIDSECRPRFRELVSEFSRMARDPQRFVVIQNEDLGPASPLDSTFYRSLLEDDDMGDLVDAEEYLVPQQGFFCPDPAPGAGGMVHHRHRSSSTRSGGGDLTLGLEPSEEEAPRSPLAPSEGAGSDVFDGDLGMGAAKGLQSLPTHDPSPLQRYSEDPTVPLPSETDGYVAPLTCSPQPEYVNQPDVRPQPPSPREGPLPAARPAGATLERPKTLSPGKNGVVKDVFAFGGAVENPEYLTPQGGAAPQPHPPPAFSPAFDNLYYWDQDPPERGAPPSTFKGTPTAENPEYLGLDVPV

With `CN1C[C@H]2C[C@@]2(C#Cc2cc3ncnc(Nc4cccc(Cl)c4F)c3cc2NC(=O)C#CCN2CCOCC2)C1` [Compound 18, N-(4-((3-chloro-2-fluorophenyl)amino)-7-(((1R,5S)-3-methyl-3-azabicyclo[3.1.0]hexan-1-yl)ethynyl)quinazolin-6-yl)-4-morpholinobut-2-ynamide], the IC50 at EGFR V3 and at HER2 S310F was ≤ 50 nM throughout.

On to `CCC(=O)Nc1cc2c(Nc3cccc(Cl)c3F)ncnc2cc1C#C[C@@]1(C)CCN(C)C1` [Compound 22, (R)—N-(4-((3-chloro-2-fluorophenyl)amino)-7-((1,3-dimethylpyrrolidin-3-yl)ethynyl)quinazolin-6-yl)propionamide], for which the IC50 against EGFR V3 and on HER2 S310F was > 500 nM each time.

Consider `C/C=C/C(=O)Nc1cc2c(Nc3cccc(Cl)c3F)ncnc2cc1C#C[C@@]1(C)CCN(C)C1` [Compound 27, (R,E)-N-(4-((3-chloro-2-fluorophenyl)amino)-7-((1,3-dimethylpyrrolidin-3-yl)ethynyl)quinazolin-6-yl)but-2-enamide], for which the IC50 against EGFR V3 is > 500 nM; against HER2 YVMA, > 500 nM; at EGFR wt, 100 to 500 nM.

With `C=CC(=O)Nc1cc2c(Nc3ccc(Oc4ccn5ncnc5c4)c(C)c3)ncnc2cc1C#CC12CC1CN(C)C2` (stereo not shown) [Compound 28, N-(4-((4-([1,2,4]triazolo[1,5-a]pyridin-7-yloxy)-3-methylphenyl)amino)-7-((3-methyl-3-azabicyclo[3.1.0]hexan-1-yl)ethynyl)quinazolin-6-yl)acrylamide], the figures for the IC50 at EGFR V3, against HER2 YVMA and against EGFR wt were ≤ 50 nM, ≤ 50 nM and > 500 nM, respectively.

Consider `C=CC(=O)Nc1cc2c(Nc3cc(Cl)ccc3F)ncnc2cc1C#CC1(C)COC1` [Compound 29, N-(4-((5-chloro-2-fluorophenyl)amino)-7-((3-methyloxetan-3-yl)ethynyl)quinazolin-6-yl)acrylamide], for which the IC50 against EGFR V3 was 100 to 500 nM; on HER2 YVMA, > 500 nM; on EGFR wt it was 100 to 500 nM.

`C=CC(=O)Nc1cc2c(Nc3cccc(Cl)c3F)ncnc2cc1C#CC1(C)COC1` [Compound 30, N-(4-((3-chloro-2-fluorophenyl)amino)-7-((3-methyloxetan-3-yl)ethynyl)quinazolin-6-yl)acrylamide]: the IC50 on EGFR V3 is ≤ 50 nM; against HER2 YVMA it was 50 to 100 nM; against EGFR wt, 50 to 100 nM.

For the molecule `C=C(CO)C(=O)Nc1cc2c(Nc3cccc(Cl)c3F)ncnc2cc1C#C[C@@]1(C)CCN(C)C1` [Compound 31, (R)—N-(4-((3-chloro-2-fluorophenyl)amino)-7-((1,3-dimethylpyrrolidin-3-yl)ethynyl)quinazolin-6-yl)-2-(hydroxymethyl)acrylamide], the IC50 against EGFR V3 is 50 to 100 nM; on HER2 YVMA, 100 to 500 nM; at EGFR wt it was ≤ 50 nM.

For `C=CC(=O)Nc1cc2c(Nc3cccc(Cl)c3F)ncnc2cc1C#CC1(C)CN(C)CCO1` (stereo not shown) [Compound 32, N-(4-((3-chloro-2-fluorophenyl)amino)-7-((2,4-dimethylmorpholin-2-yl)ethynyl)quinazolin-6-yl)acrylamide], the IC50 at EGFR V3 was ≤ 50 nM; at HER2 YVMA it was > 500 nM; at EGFR wt, > 500 nM.

Regarding `C=CC(=O)Nc1cc2c(Nc3ccc(Cl)c(Cl)c3F)ncnc2cc1C#C[C@]12C[C@H]1CN(C)C2` [Compound 33, N-(4-((3,4-dichloro-2-fluorophenyl)amino)-7-(((1S,5R)-3-methyl-3-azabicyclo[3.1.0]hexan-1-yl)ethynyl)quinazolin-6-yl)acrylamide], the IC50 on EGFR V3, at HER2 YVMA and on EGFR wt was ≤ 50 nM in each case.

Consider `C=CC(=O)Nc1cc2c(Nc3ccc(Cl)c(Cl)c3F)ncnc2cc1C#C[C@@]12C[C@@H]1CN(C)C2` [Compound 34], for which the IC50 at EGFR V3, on HER2 YVMA and at EGFR wt was ≤ 50 nM in each case.

For `C=CC(=O)Nc1cc2c(Nc3cccc(Cl)c3F)ncnc2cc1C#C[C@@]1(OC)CCN(C)C1` [Compound 35, (S)—N-(4-((3-chloro-2-fluorophenyl)amino)-7-((3-methoxy-1-methylpyrrolidin-3-yl)ethynyl)quinazolin-6-yl)acrylamide], the IC50 against EGFR V3, at HER2 YVMA and at EGFR wt was ≤ 50 nM throughout.

Turning to `C=CC(=O)Nc1cc2c(Nc3cccc(Cl)c3F)ncnc2cc1C#C[C@]1(OC)CCN(C)C1` [Compound 36, (R)—N-(4-((3-chloro-2-fluorophenyl)amino)-7-((3-methoxy-1-methylpyrrolidin-3-yl)ethynyl)quinazolin-6-yl)acrylamide], the IC50 against EGFR V3, against HER2 YVMA and on EGFR wt was ≤ 50 nM in each case.

Regarding `CC#CC(=O)Nc1cc2c(Nc3cccc(Cl)c3F)ncnc2cc1C#C[C@@]12C[C@@H]1CN(C)C2` [Compound 38, N-(4-((3-chloro-2-fluorophenyl)amino)-7-(((1R,5S)-3-methyl-3-azabicyclo[3.1.0]hexan-1-yl)ethynyl)quinazolin-6-yl)but-2-ynamide], the results for the IC50 against EGFR V3, at HER2 YVMA and on EGFR wt were ≤ 50 nM, 100 to 500 nM and 50 to 100 nM, respectively.

Regarding `CC(C)/C=C/C(=O)Nc1cc2c(Nc3cccc(Cl)c3F)ncnc2cc1C#C[C@@]1(C)CCN(C)C1` [Compound 39, (E)-N-[4-(3-chloro-2-fluoro-anilino)-7-[2-[(3R)-1,3-dimethylpyrrolidin-3-yl]ethynyl]quinazolin-6-yl]-4-methyl-pent-2-enamide], the IC50 was > 500 nM on EGFR V3, > 500 nM on HER2 YVMA and 50 to 100 nM on EGFR wt.

Turning to `C=CC(=O)Nc1cc2c(Nc3ccc(Oc4ccccc4)cc3)ncnc2cc1C#C[C@@]12C[C@@H]1CN(C)C2` [Compound 40, N-(7-(((1R,5S)-3-methyl-3-azabicyclo[3.1.0]hexan-1-yl)ethynyl)-4-((4-phenoxyphenyl)amino)quinazolin-6-yl)acrylamide], the IC50 against EGFR V3 is ≤ 50 nM; on HER2 YVMA, 100 to 500 nM; on EGFR wt, 100 to 500 nM.

As to `C=CC(=O)Nc1cc2c(Nc3cccc(Cl)c3F)ncnc2cc1C#C[C@]12C[C@H]1CN(C(C)C)C2` [Compound 42, N-(4-((3-chloro-2-fluorophenyl)amino)-7-(((1S,5R)-3-isopropyl-3-azabicyclo[3.1.0]hexan-1-yl)ethynyl)quinazolin-6-yl)acrylamide], the half-inhibitory concentration (IC50) at EGFR V3, at HER2 YVMA and at EGFR wt was ≤ 50 nM in each case.

Take `COC(=O)Nc1cc2c(Nc3cccc(Cl)c3F)ncnc2cc1C#CC1(C)CCN(C)C1` (stereo not shown) [Compound 43, Methyl (4-((3-chloro-2-fluorophenyl)amino)-7-((1,3-dimethylpyrrolidin-3-yl)ethynyl)quinazolin-6-yl)carbamate]: the IC50 against EGFR V3 is > 500 nM; at HER2 YVMA it was > 500 nM; against EGFR wt it was ≤ 50 nM.

In the case of `CN(C)C/C=C/C(=O)Nc1cc2c(Nc3cccc(Cl)c3F)ncnc2cc1C#CC1(C)CCOC1` (stereo not shown) [Compound 44, (E)-N-(4-((3-chloro-2-fluorophenyl)amino)-7-((3-methyltetrahydrofuran-3-yl)ethynyl)quinazolin-6-yl)-4-(dimethylamino)but-2-enamide], the concentration for half-maximal inhibition (IC50) against EGFR V3, against HER2 YVMA and against EGFR wt was ≤ 50 nM throughout.

In the case of `CN1CC[C@](C)(C#Cc2cc3ncnc(Nc4cccc(Cl)c4F)c3cc2NC(=O)CC#N)C1` [Compound No. 84, (R)—N-(4-((3-chloro-2-fluorophenyl)amino)-7-((1,3-dimethylpyrrolidin-3-yl)ethynyl)quinazolin-6-yl)-2-cyanoacetamide], the IC50 at EGFR V3, at HER2 YVMA and against EGFR wt was > 500 nM each time.

(Values after patent US12435046B2, “Alkynyl quinazoline compounds” (Black Diamond Therapeutics, Inc., priority 2019, dated 2025).)
